Measurements from patent US8663703B2, “Drug microparticles, processes of preparing them and a drug delivery vehicle comprising them” (Teva Pharmaceutical Industries, Ltd., priority 2002, dated 2014).
Each block holds one molecule with its values, some of them ahead of it.

Assay: Solubility of selected drugs in menthol melt
Format: physicochemical
Experimental: The following general procedure was repeated with several drugs with menthol carrier.
Menthol (10 grams) was melted on a stirring hot plate with magnetic stirring, then heated to the desired temperature indicated in Table 1. The desired drug was added in small increments (0.1 grams) and stirred to obtain a clear solution. The desired drug was added in increments until no more drug dissolved in the menthol.

Solubility in menthol (menthol melt, 63 °C): 40.0 % w/w
SMILES: CC[C@H]1OC(=O)[C@H](C)[C@@H](O[C@H]2C[C@@](C)(OC)[C@@H](O)[C@H](C)O2)[C@H](C)[C@@H](O[C@@H]2O[C@H](C)C[C@H](N(C)C)[C@H]2O)[C@](C)(O)C[C@@H](C)CN(C)[C@H](C)[C@@H](O)[C@]1(C)O [Azithromycin]

Solubility in menthol (in menthol at 60° C. (text of Example 6)): 1%
Solubility in menthol (menthol melt, 61 °C): 1.0 % w/w
SMILES: CCC(C)n1ncn(-c2ccc(N3CCN(c4ccc(OCC5COC(Cn6cncn6)(c6ccc(Cl)cc6Cl)O5)cc4)CC3)cc2)c1=O (stereo not shown) [Itraconazole]

Solubility in menthol (menthol melt, 43 °C): 16.0 % w/w
SMILES: O=C(O)c1ccccc1O [Salicylic acid]
